{"source": "patent US20250222109A1", "about": "“STRUCTURED LIPID COMPOSITIONS” (Universität Bern, priority 2022, published 2025)", "system": "T cell transfer colitis", "experiment": "T-cell transfer colitis", "type": "in vivo, mice", "source_text": "To induce T cell mediated colitis, CD4+ T cells were isolated from the spleen of C57/BL6 mice (Strain #: 000664; RRID:IMSR_JAX: 000664 ex. Jackson laboratories) using the CD4 T cell isolation kit from Stemcell Technologies (#19852; Cologne, Germany) and subsequently naïve T helper cells (CD3+, CD4+, CD25low, […], CD44low cells) were sorted on a FACS Aria III (Becton Dickinson; Eysins, Switzerland) as described previously (D. V. Ostanin, et al., T cell transfer model of chronic colitis: Concepts, considerations, and tricks of the tradeAm. J. Physiol.—Gastrointest. Liver Physiol. 296, 135-146 (2009); M. R. Spalinger, et al., PTPN2 controls differentiation of CD4+ T cells and limits intestinal inflammation and intestinal dysbiosis, Mucosal Immunol. 8, 918-929 (2015); M. R. Spalinger, et al., Loss of PTPN22 Promotes Intestinal Inflammation by Compromising Granulocyte-mediated Antibacterial Defence, J. Crohn's Colitis 15, 2118-2130 (2021)). 12-15 week old male and female Rag^−/− mice in the C57/BL6 background (model RAGN12 (B6.129S6-Rag2^tm1Fwa N12) ex. Taconic) were injected intraperitoneally with 2.5×10^5 naïve T helper cells (all methods used were approved under licence no. ZH043/2021). Starting on day 2 post T cell injection, the mice received one daily rectal instillation (100 μL) of empty TIF-Gels, TAC-loaded TIF-Gels or TAC in vehicle solution (1% […] in distilled water). Weight development and disease activity scores were measured on a daily basis. On the last day of the experiment (day 18), the mice were anaesthetised using a mixture of ketamine 90-120 mg/kg bodyweight (Vétoquinol, Bern, Switzerland) and xylazine 8 mg/kg bodyweight (Bayer, Lyssach, Switzerland), and were subjected to mouse endoscopy to assess the extent of endoscopic colitis (M. R. Spalinger, et al., Protein tyrosine phosphatase non-receptor type 22 modulates colitis in a microbiota-dependent manner, J. Clin. Invest. 129, 2527-2541 (2019)) using the following parameters: 1) thickening of the colon wall, 2) vascularisation/bleeding, 3) extent of fibrin deposits, 4) granular appearance of the colon wall, 5) stool consistency. Each parameter was given a score from 0 (normal) to 3 (most severe appearance), resulting in a maximal total score of 15. After colonoscopy, the mice were sacrificed and colon tissue harvested for histology and isolation of lamina propria immune cells. Immune cells were isolated from the colon, mesenteric lymph nodes and the spleen, and analysed for immune cell subsets (M. R. Spalinger, et al., (2019) Loss of PTPN22 abrogates the beneficial effect of cohousing-mediated fecal microbiota transfer in murine colitis, Mucosal Immunol. 12, 1336-1347).\nTo assess the microscopic extent of colitis, formalin-fixed, paraffin embedded sections of the most distal 1.5 cm of the colon were subjected to hematoxilin and eosin (H&E) staining using standard protocols (M. R. Spalinger, et al. (2019)). The sections were analysed by two blinded scientists for the extent of epithelial damage (score 0-4) and infiltration of immune cells (score 0-4) resulting in a maximal possible score of 8. Images were taken using a Zeiss Axio Imager.Z2 microscope (Zeiss), equipped with an AxioCam HRc (Zeiss, Jena, Germany) camera and ZEN imaging software (Zeiss, Germany).\nTo analyse cytokine levels in the colons, colon pieces were lysed in PBS (1 ml PBS/[…] tissue) using a GentleMACS device from Miltenyi Biotec (Miltenyi Biotec, Bergisch Gladbach, Germany). Lysates were then analysed for cytokines using the Bio-Plex Pro Mouse Cytokine 23-plex Assay from Bio-Rad (Hercules, CA) according to the manufacturer's instructions.\nTIF-Gel acts as a platform able to host and release molecules with different polarity. Thus, the hydrophobic TAC was loaded in to TIF-Gel and its ability to reduce colitis severity was assessed also using a model of T cell mediated colitis, namely T cell transfer colitis. […]", "key": {"[1]": {"settings": "daily rectal instillation 100 μL"}}}
{"compound": "C=CC[C@@H]1/C=C(\\C)C[C@H](C)C[C@H](OC)[C@H]2O[C@@](O)(C(=O)C(=O)N3CCCC[C@H]3C(=O)O[C@H](/C(C)=C/[C@@H]3CC[C@@H](O)[C@H](OC)C3)[C@H](C)[C@@H](O)CC1=O)[C@H](C)C[C@@H]2OC", "note": "[TAC, tacrolimus]", "values": [{"measurement": "levels of IFN-γ", "setting": "colonic tissues", "result": "reduced levels"}, {"measurement": "levels of IL-17", "setting": "colonic tissues", "result": "reduced levels"}, {"measurement": "first signs of colitis, day post T cell transfer", "setting": "daily rectal instillation", "result": "~10", "unit": "days"}, {"measurement": "diarrhoea / disease activity score", "setting": "[1]", "result": "signs of diarrhoea"}, {"measurement": "weight development", "setting": "[1]", "result": "progressive weight loss"}, {"measurement": "relative abundance of T cells", "setting": "lamina propria, mesenteric lymph nodes and spleen", "result": "reduced the relative abundance of T cells"}, {"measurement": "abundance of FOXP3+ (regulatory) T cells", "setting": "mouse, in vivo", "result": "not much effect"}, {"measurement": "Th1 cells", "setting": "vs empty TIF-Gels", "result": "reduced"}, {"measurement": "Th17 cells", "setting": "vs empty TIF-Gels", "result": "reduced"}, {"measurement": "colon length", "setting": "vs empty TIF-Gels", "result": "longer colons"}, {"measurement": "spleen weight", "setting": "vs empty TIF-Gels", "result": "reduced spleen weight"}]}
